Data from patent US20230414634A1, “METHODS FOR TREATING CHOLESTATIC PRURITUS” (GlaxoSmithKline Intellectual Property (No.2) Limited, priority 2020, published 2023).

How the values were obtained:
[1] = tested on: PBC patients with pruritus; assay: Phase 2a crossover clinical study BAT117213 (NCT01899703) of GSK672 versus placebo; type: in vivo, human
Experimental: A Phase 2a clinical study (NCT01899703; GSK study BAT117213) was carried out to investigate the safety, tolerability, and effect of repeat doses of GSK672 administration in patients with cholestatic pruritus in Primary Biliary Cholangitis (PBC). The results of this study have been summarized and published on clintrials.gov (NCT01899703).
A phase 2 double-blind, randomised, placebo controlled, crossover trial in PBC patients with pruritus was conducted at two specialist PBC centres in the United Kingdom between March 2014 and November 2015. Subjects received oral 45 to 90 mg GSK672 (45 mg BID for Day 1 to 3 and 90 mg BID for Days 4 to 14) and placebo twice daily for 14 days, in a crossover sequence.
The three different itch rating scales were employed: 10-point NRS, 5D Itch Scale and PBC-40.
The primary end point was safety (measured by clinical and laboratory assessments and adverse events (AEs)) and tolerability. Secondary end points were: i) changes in pruritus scores from baseline measured using a 0 to 10 numerical rating scale (NRS) completed twice daily and PBC-40 itch domain scores and 5-D itch scale and ii) changes in serum levels of total bile acids and C4. Serum levels of ATX activity and FGF-19 were measured at baseline and at the end of each treatment period.
An analysis was carried out as to the effect of 90 mg BID. No analysis was carried out as to the effect of 45 mg BID as this dose was administered for Days 1 to 3 in order to ease patients onto the higher 90 mg BID dose.

[2] = tested on: patients with PBC and cholestatic pruritus; assay: GLIMMER Phase 2b study (NCT02966834): itch efficacy and PBC-40 quality of life; type: in vivo, human; details: for mean increase in itch responder days: difference from placebo, 12 weeks' treatment
Text: Measurement of Itch (pruritus)—10 Point Numerical Rating Scale (NRS) • Itch Score: itch scores recorded by study participants twice daily; a 0-10 Numerical Rating Scale (NRS) is used to assess itch with a response option of 0 representing no itching and 10 the worst imaginable itching • Worst Daily Itch Score: the worst of two itch scores recorded by a patient daily is considered the score for that day (i.e. the most severe (highest) NRS recorded on a given day) • Mean Worst Daily Itch Score (Weekly Itch Score [WIS]): the average of the Worst Daily Itch Scores in one week (7 days) • Monthly Itch Score (MIS): the worst Mean Worst Daily Itch Score for that month (i.e., worst week score of the 4 weeks) • Itch Response: for example, ≥2-point improvement in mean Worst Daily Itch Score from Baseline • Itch Responder Days: days when the Itch Response definition is met (i.e. days with an Itch Response) • Itch Severity: measured using 0-10 NRS; moderate to severe is ≥4 NRS • Baseline (itch score at the end of the placebo period before treatment,) is the average of the itch scores in the 7 days prior to randomisation (in Example 2, prior to randomisation at Week 4) • Change from Baseline was calculated as the post-Baseline value minus the Baseline value.
GLIMMER trial: Phase 2b study (NCT02966834; GSK study 201000). A randomized, double-blind, placebo-controlled study of linerixibat, an inhibitor of the ileal bile acid transporter, in the treatment of cholestatic pruritus in primary biliary cholangitis, for patients with PBC and pruritus.
The twice daily patient-reported 0-10 Numerical Rating Scale (NRS) worst itch assessment was employed, with the worst value from each day used to calculate the mean worst daily itch, which was then used to assess change in pruritus. This measure has independent content validity in PBC; similar measures are psychometrically valid and have been used to determine changes in itch intensity in PBC.
Patients with PBC with pruritus (≥4 on 0-10 numeric rating scale [NRS]) were enrolled; double-blind treatment was preceded and followed by 4 weeks' single-blind placebo.
At Week 4, patients with NRS ≥3 were randomized,(4:1) to double-blind linerixibat or placebo for 12 weeks (to Week 16), followed by single-blind placebo (to Week 20).
Primary endpoint: mean change from baseline in mean Worst Daily Itch Score at Week 16. Participants were required to score the severity of their itching using the 0-10 NRS, from which the Worst Daily Itch Score is obtained, and the Mean Worst Daily Itch score was calculated as the average of the worst daily itch scores provided in the 7 days prior to the Week 16 visit. Baseline is the average of the scores in the 7 days prior to the Week 4, and the Change from Baseline was calculated. Analysis was done using Analysis of covariance (ANCOVA) including treatment group and centered Mean Worst Daily Itch score at Baseline.
Secondary and exploratory endpoints: itch efficacy, quality of life (PBC-40) and pharmacodynamic biomarkers, and safety and tolerability.
Ad hoc endpoint: change from baseline itch compared with Monthly Itch Score over the main study period.
Due to the potential fluctuation of itch over time, an additional post-hoc analysis was conducted on the primary endpoint according to the FDA preferred approach to evaluate the effect over the entire 12 weeks treatment duration using Monthly Itch Score. A mixed model repeated measures (or mixed-effect repeated measure model) (MMRM) analysis estimated the effect of linerixibat comparing to placebo over the entire 12 weeks treatment duration.

CCCC[C@]1(CC)CS(=O)(=O)c2cc(CNC(CC(=O)O)CC(=O)O)c(OC)cc2[C@@H](c2ccccc2)N1 [linerixibat]
pruritus severity compared to placebo (NRS, 5D Itch Scale and PBC-40) ([1]; 90 mg BID, 22 subjects with PBC pruritus): statistically significant decrease | reduction in itch intensity as compared to placebo ([1]; 90 mg BID, 14 day crossover): 71% | itch intensity, PBC-40 itch domain, compared to placebo ([1]; 90 mg BID, 95% CI: −0.94 to −0.24): −0.59 | itch intensity, 5-D itch, compared to placebo ([1]; 90 mg BID, 95% CI: −6.60 to −2.49): −4.55 | itch intensity as measured by NRS, compared to placebo ([1]; 90 mg BID, 95%CI: −2.48 to −0.68): −1.58 | fatigue, sleep disturbance and overall disability compared to placebo ([1]; human, in vivo): Decreases | time at which reduction of pruritus severity occurred ([1]; human, in vivo): within the first week | tolerability ([1]; two weeks of oral twice daily 90 mg): well tolerated | responder days vs placebo ([2]; 40 mg BID and 90 mg BID): Significantly more | Mean Worst Daily Itch Score of patients with moderate to severe itch at baseline, versus placebo ([2]; 40 mg BID, 12 weeks treatment): Significant difference | PBC-40 emotional domain, LS Mean difference vs placebo ([2]; 40 mg BID, 95% CI: −1.9, 0.3): −0.8 | PBC-40 social domain, LS Mean difference vs placebo ([2]; 40 mg BID, 95% CI: −4.8, 0.1): −2.4 | mean increase in itch responder days ([2]; 40 mg BID): 20% | LS Mean Change from Baseline vs Placebo in Monthly Itch Score over 12 weeks treatment (MMRM, post-hoc) ([2]; 40 mg BID, p=0.011): -1.16 | Monthly Itch Score, improvement from baseline over 12 weeks treatment ([2]; 40 mg and 90 mg BID, 180 mg QD): Significant improvement | mean increase in itch responder days ([2]; 90 mg BID): 27% | LS Mean Change from Baseline vs Placebo in Monthly Itch Score over 12 weeks treatment (MMRM, post-hoc) ([2]; 90 mg BID, p=0.037): −0.95 | LS Mean Change from Baseline vs Placebo in Monthly Itch Score over 12 weeks treatment (MMRM, post-hoc) ([2]; 180 mg QD, p=0.042): −0.90 | pre-specified primary endpoint: dose response across dose ranges ([2]; ITT and per protocol populations): could not be established | mean Worst Daily Itch Score ([2]; all linerixibat doses): rapid improvement | PBC-40 itch domain, change from baseline after 12 weeks ([2]; all treatment groups including placebo, p≤0.05): significant improvement
